Reference: PMC10439952, “JT002, a small molecule inhibitor of the NLRP3 inflammasome for the treatment of autoinflammatory disorders” (Scientific Reports, 2023)
pIC50: −log10 of the molar value.

Tests used:
Format in all cases: cell-based
[1] = molecular target: T1, NLRC4 inflammasome (Mus musculus, UniProt Q3UP24); assay: IL-1β production in mouse BMDMs after NLRC4 activation (LPS + flagellin); conditions: mBMDMs, concentrations up to 10 µM
T1 construct: host or cells: mouse BMDMs, LPS + transfected flagellin
T1 sequence (Q3UP24 whole entry): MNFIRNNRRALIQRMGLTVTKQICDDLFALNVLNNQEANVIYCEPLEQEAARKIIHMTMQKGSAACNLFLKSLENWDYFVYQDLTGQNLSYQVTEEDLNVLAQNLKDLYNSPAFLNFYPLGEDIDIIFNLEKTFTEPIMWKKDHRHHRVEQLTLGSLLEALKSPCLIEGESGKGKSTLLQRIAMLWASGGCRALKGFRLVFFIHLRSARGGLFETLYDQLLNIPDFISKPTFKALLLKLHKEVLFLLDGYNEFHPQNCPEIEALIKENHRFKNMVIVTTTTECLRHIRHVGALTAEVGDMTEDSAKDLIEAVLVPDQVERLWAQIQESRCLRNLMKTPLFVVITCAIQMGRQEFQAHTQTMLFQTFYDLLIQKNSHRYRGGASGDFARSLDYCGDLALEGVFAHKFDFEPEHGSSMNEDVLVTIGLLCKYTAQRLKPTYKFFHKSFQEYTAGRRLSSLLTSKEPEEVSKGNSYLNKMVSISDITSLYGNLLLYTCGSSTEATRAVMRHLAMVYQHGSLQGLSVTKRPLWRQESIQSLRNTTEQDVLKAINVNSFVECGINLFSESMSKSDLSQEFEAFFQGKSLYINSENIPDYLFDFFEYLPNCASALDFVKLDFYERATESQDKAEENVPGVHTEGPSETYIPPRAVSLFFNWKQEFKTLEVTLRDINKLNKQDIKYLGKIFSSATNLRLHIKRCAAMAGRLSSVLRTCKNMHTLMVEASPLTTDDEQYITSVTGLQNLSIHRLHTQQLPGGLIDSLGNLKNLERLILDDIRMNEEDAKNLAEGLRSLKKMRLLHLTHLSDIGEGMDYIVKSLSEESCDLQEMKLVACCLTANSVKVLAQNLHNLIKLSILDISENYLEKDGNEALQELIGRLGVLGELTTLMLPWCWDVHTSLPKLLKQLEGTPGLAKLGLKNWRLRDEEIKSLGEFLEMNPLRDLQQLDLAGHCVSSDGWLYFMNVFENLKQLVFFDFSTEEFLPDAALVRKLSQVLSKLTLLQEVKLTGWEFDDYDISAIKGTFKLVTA
Procedure: (§1) Cell viability was determined by addition of an equal volume of CellTiter-Glo® 2.0 reagent (Promega) to the remaining cells/supernatant in each well. Intracellular Caspase-1 activity was measured using the Caspase-Glo® assay (Promega) according to the manufacturer’s instructions. The biochemical capsase-1 assay was conducted at Reaction Biology Corporation (Malvern, USA). Human IL-1β, IL-1α, and TNFα and mouse IL-1β were measured in cell culture supernatants using homogeneous time resolved fluorescence assay kits (HTRF, Cisbio, Codolet, France). Human IL-18 was measured in cell culture supernatants using an ELISA kit (R&D Systems, Minneapolis, MN, USA). Plasma IL-1β concentrations were determined by Quantikine® ELISA (R&D Systems, Minneapolis, MN).
(§2) 4H). MS: m/z 433.1 (M+H+). […]
flagellin, prepared in Opt iMEM and combined with Lipofectamine 2000. […] After priming Nlrp3 -/- mBMDMs with 100 ng/mL of LPS for 3- 5 h, cells were exposed to 100 ng/mL L18- MDP and incubated overnight.At the end of the incubation period of the assays above, plates were briefly centri fuged and hal f of the cell culture supern atant remo ved and either analysed i mmediately or stored at - 80°C for subs equent cytokine […]

[2] = tested on: autocatalytic cleavage of pro-caspase-1 (p45) into the p10 subunit; assay: Western blot for caspase-1 p10 in LPS + nigericin stimulated mouse BMDM lysates and supernatants; conditions: LPS + nigericin treated mBMDMs, compound 10 µM
Procedure: BMDMs were activated with LPS and nigericin as described above and were lysed in situ with 50 μL of 4× NuPAGE LDS sample buffer (Fisher Scientific, Hampton, NH) + 5% β-mercaptoethanol and prepared for polyacrylamide gel electrophoresis. Samples were run on NuPAGE Bis–Tris gels (Fisher Scientific, Hampton, NH) and transferred to polyvinylidene difluoride (PVDF) membranes (Fisher Scientific, Hampton, NH) using the iBlot® 2 Dry Blotting System (Fisher Scientific, Hampton, NH). Washed PVDF membranes were blocked and then probed with the following primary antibodies: procaspase-1 + p10 + p12 [EPR16883] (Abcam, Cambridge, MA), β-actin (AC-74, Sigma-Aldrich, St. Louis, MO) and NLRP3 [Cryo-2] (AdipoGen Life Sciences, San Diego, CA). Bound primary antibodies were detected using HRP-labeled secondary antibodies and membranes were imaged with an Azure c300 imager (Azure Biosystems, Dublin, CA). Bands were quantitated using ImageJ software.

[3] = molecular target: NLRP3 inflammasome (Mus musculus, UniProt Q8R4B8); assay: Inhibition of IL-1β production in mouse BMDMs stimulated by LPS + nigericin; set-up: host or cells: mouse PBMCs; mouse bone-marrow derived macrophages; mouse whole blood (C57BL/6 in the ex vivo study); conditions: Mouse BMDM, read-out: Geo Av IC50, IL-1β
NLRP3 inflammasome, sequence (Q8R4B8 whole entry): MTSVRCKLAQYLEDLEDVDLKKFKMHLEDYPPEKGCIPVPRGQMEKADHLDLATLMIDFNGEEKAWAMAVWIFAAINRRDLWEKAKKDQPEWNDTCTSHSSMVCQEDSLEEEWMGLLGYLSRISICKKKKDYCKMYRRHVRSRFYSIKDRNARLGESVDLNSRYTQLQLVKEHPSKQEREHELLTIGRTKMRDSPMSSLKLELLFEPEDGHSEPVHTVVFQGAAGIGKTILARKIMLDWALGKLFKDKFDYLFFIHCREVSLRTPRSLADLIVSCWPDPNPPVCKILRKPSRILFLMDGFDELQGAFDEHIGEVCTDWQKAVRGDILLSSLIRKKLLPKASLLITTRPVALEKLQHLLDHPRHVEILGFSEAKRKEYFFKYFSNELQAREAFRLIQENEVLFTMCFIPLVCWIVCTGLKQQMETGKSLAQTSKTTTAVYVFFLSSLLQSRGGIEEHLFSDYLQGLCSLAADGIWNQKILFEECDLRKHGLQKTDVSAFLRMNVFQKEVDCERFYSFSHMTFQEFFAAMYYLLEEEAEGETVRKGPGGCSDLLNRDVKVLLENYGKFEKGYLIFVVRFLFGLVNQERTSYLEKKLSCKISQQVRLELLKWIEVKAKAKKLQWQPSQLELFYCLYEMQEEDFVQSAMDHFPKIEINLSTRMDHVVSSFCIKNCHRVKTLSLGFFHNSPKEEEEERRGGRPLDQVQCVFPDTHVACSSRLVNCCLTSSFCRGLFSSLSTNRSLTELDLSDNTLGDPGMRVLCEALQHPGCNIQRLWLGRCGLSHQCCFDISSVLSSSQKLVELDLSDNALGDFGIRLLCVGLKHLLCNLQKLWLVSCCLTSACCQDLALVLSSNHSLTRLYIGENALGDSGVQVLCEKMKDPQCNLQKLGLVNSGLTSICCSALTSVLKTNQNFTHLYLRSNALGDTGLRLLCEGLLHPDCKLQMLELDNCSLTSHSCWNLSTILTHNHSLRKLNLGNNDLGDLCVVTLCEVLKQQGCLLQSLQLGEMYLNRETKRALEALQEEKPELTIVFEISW
Procedure: Inflammasome activation and whole blood assays were essentially carried out as described earlier. Details can be found in the supplementary information section accompanying this publication. A protocol for blood draws from healthy volunteers and use of the blood in preclinical assays was approved by Western Institutional Review Board, Inc (Puyallup, WA, USA). Informed consent was obtained from each donor prior to the first blood draw.
as §1, §2

inhibition of IL-1β production after NLRC4 activation [1]: no inhibition of IL-1β production
pIC50 [3]: 7.64
Compound: CO[C@@H]1COc2c(S(=O)(=O)NC(=O)Nc3c4c(cc5c3CCC5)CCC4)cnn2C1 [JT002]
formation of the caspase-1 p10 subunit (autocatalytic cleavage of pro-caspase-1) [2]: blocked formation of the p10 subunit and its release from the cell
